Article PMC7310518 (Nature chemical biology, 2017)
Like-named read-outs stand apart in the source and are kept apart here.

Columns and labels:
[1] = target: T1, AaBioW (pimeloyl-CoA synthetase BioW) (Aquifex aeolicus, UniProt O67575); assay: co-crystal structure with CoA; format: binding
[2] = target: T1, AaBioW (pimeloyl-CoA synthetase BioW); assay: ITC; format: binding
[3] = target: T1, AaBioW (pimeloyl-CoA synthetase BioW); assay: ITC; format: binding; remark: listed apart in the source
[4] = target: T1, AaBioW (pimeloyl-CoA synthetase BioW); assay: TLC proofreading assay; format: biochemical
[5] = target: T1, AaBioW (pimeloyl-CoA synthetase BioW); assay: TLC adenylation/proofreading assay; format: biochemical

T1 sequence (O67575 whole entry): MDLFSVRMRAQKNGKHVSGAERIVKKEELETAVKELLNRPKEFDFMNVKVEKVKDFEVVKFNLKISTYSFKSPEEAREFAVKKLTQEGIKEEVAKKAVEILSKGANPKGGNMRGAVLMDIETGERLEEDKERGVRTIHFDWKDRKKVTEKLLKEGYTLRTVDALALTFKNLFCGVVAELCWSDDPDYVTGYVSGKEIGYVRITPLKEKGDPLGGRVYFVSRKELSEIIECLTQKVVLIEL

With `Nc1ncnc2c1ncn2[C@@H]1O[C@H](COP(=O)(O)O)[C@@H](O)[C@H]1O` [AMP] the “co-crystal structure with CoA (2.25 Å)” value [1] was “AaBioW with CoA–AMP (5TVA)”.
In the case of `Nc1ncnc2c1ncn2[C@@H]1O[C@H](COP(=O)(O)OP(=O)(O)OP(=O)(O)O)[C@@H](O)[C@H]1O` [ATP], the Kd [2] is reported as 13 ± 3 µM.
`CC(C)(COP(=O)(O)OP(=O)(O)OC[C@H]1O[C@@H](n2cnc3c(N)ncnc32)[C@H](O)[C@@H]1OP(=O)(O)O)[C@@H](O)C(=O)NCCC(=O)NCCS` [CoA] showed a Kd [3] of 14 ± 2.5 µM.
With `O=C(O)CCCC(=O)O` [compound 3, glutarate] the “TLC proofreading assay (AMP accumulation)” value [4] was “reactions carried out using glutarate in the absence of CoA resulted only in the accumulation of AMP”.
For `O=C(O)CCCCC(=O)O` [compound 4, adipate], the TLC adenylation/proofreading assay [5] was “adenylated intermediates can be observed for the cognate C7, as well as for the noncognate C6 and C8 substrates”.
`O=C(O)CCCCCCC(=O)O` [compound 5, suberate] was tested, and the TLC adenylation/proofreading assay [5] was “adenylated intermediates can be observed for the cognate C7, as well as for the noncognate C6 and C8 substrates”.
